These results are taken from article PMC10478803, “Contributions of the N-terminal flanking residues of an antigenic peptide from the Japanese cedar pollen allergen Cry j 1 to the T-cell activation by HLA-DP5” (International Immunology, 2023).

Assay [1] concerns TCR(SU3–2)-TG40, TCR(SU3–3)-TG40, TCR(NM-4)-TG40, and TCR(NM-7)-TG40 cells. The assay can be described thus: CD137^+ response of TCR-transfected TG40 cells. To be noted: in the presence of HLA-DP5-expressing cells. The assay is classed as cell-based, mouse. How it is done: (§1) Cloning of CD4^+ T cells was performed as described previously ([23]). A single, viable (7AAD^–), CD4^+, CFSE^dim cell was sorted into each well of a 96-well plate, which contained 100 μl of culture medium with feeder cells and cytokines, as described below. Irradiated (30 Gy) peptide-pulsed PBMCs (1.0 × 10^5) isolated from unrelated DPB1*05:01^+ donors were used as feeder cells in the cloning plates. Pooled human serum (5%) and IL-2 (100 U ml^−1) (Peprotech) were added at the indicated final concentrations to AIM-V medium (Life Technologies). Cells were fed every 7 days with fresh cytokine and peptide-pulsed PBMCs. Growing clones were identified by visual inspection, expanded into […] plates, and then tested for antigen specificity by ^3H-thymidine incorporation and cytokine production assays, using HLA-DP5 transfected K562 cells as antigen-presenting cells (APCs). HLA-DP5-K562 cells were kindly provided by Dr H. Sugiyama, Osaka University. CD4^+ T-cell clones were stained with a PE-conjugated anti-human CD4 monoclonal antibody (mAb), and single cells were sorted into MicroAmp reaction tubes. […]
(§2) Fig. 4. […] HLA-restriction of T-cell clones was determined by addingvarious monoclonal antibodies (mAbs): anti-HLA-DR mAb (L243, BioLegend), anti-HLA-DQ mAb (SPV-L3, Abcam) or anti-HLA-DP mAb (B7/21, Abcam), at a final concentration of 10 μg ml^−1. […]

Assay [2] deals with CD4^+ T-cell clones (SU3–2, SU3–3, NM-4, and NM-7). The assay can be described thus: ^3H-thymidine incorporation assay of T-cell clone proliferation. Type of assay: cell-based, human. To be noted: HLA-DP5-positive allogenic irradiated PBMCs as APCs. The method, then:
as §1, with “(APCs).” for “(APCs). HLA-DP5-K562 cells were kindly provided by Dr H. Sugiyama, Osaka University. CD4^+ T-cell clones were stained with a PE-conjugated anti-human CD4 monoclonal antibody (mAb), and single cells were sorted into MicroAmp reaction tubes.”
T-cell clones were tested for antigen specificity, using the ^3H-thymidine incorporation assay. […] The cells were then harvested and the incorporated radioactivity was measured by β-scintillation counting. […]
as §2
(In general: Dividing cells build labelled thymidine or BrdU into new DNA.)

For assay [3], the system named is TCR(SU3–3)-TG40 and TCR(NM-4)-TG40 cells. Nature of the assay: IL-2 production assay with HLA-DP5-expressing mDC1 cells. Particulars: HLA-DP5-expressing mDC1s pulsed 3 h, coculture 18 h, ELISA; peptide 7 µg ml^−1 (Fig. 5A), 0.5–15 µg ml^−1 (Fig. 5B, C).
Experimental: The DPA1-stable cells were established by the transduction of mouse antigen-presenting dendritic cell line 1 (mDC1) cells with a retrovirus containing pMXs-Puro/DPA1 and selection with puromycin (5 μg ml^−1). The DPA1-stable cells were subsequently transduced with pMXs-IB/DPB1 and selected with blasticidin (5 μg ml^−1), to obtain DPA1- and DPB1-stable cells. […] The cell-surface expression levels of HLA-DP were analyzed with an EPICS-XL (Beckman Coulter) or BD FACSCalibur (BD Biosciences) flow cytometer. HLA-DP was stained with anti-HLA-DP (B7/21) (Leinco Technologies), and mouse IgG3 (6A3) (MBL), as the isotype control, was stained with phycoerythrin-conjugated anti-mouse IgG3 (Santa Cruz Biotechnology). mDC1 cells with certain uniform levels of HLA-DP5 expression were collected and used for the quantitative assays of cell-surface peptide-display and IL-2 production.
Human CD4^+ TG40 cells were infected with the recombinant retroviruses by using retronectin (Takara Bio), according to the manufacturer’s instructions.
HLA-DP5-expressing mDC1 cells (5.0 × 10^3 cells per well) were cultured with NF-pCj1 for 3 h in 96-well flat-bottom plates.
T-cell response to NF-pCj1 presented by mDC1s.

DKSMKVTVAFNQF [NF-pCj1]: the “response of TCR-transfected TG40 cells by CD137^+ cell number (in words)” value in assay [1] is “responded to NF-pCj1”. Also, the “proliferative response of T-cell clones (in words)” value in assay [2] is recorded as “proliferated in response to NF-pCj1”. The “IL-2 production by TCR-TG40 cells (in words)” value in assay [3] was “produced IL-2 in response to NF-pCj1”.
